Reference: patent US20250352615A1, “COMPOSITIONS AND METHODS FOR THE MODULATION OF PIEZO1 AND TRPV4” (Duke University, priority 2021, published 2025)

Tested on: pancreas
Assay: Yoda1 pancreatic duct infusion pancreatitis model
Assay type: in vivo, mouse
Details: Yoda1 0.4 mg/kg infused into the pancreatic duct
Procedure: Laparotomy surgery was performed both in pancreatic partial duct ligation- and retrograde pancreatic duct infusion-mediated pancreatitis experiments as previously described by Romac et al., Nat. Commun. 9(1):1715 (2018). Yoda1 at a dose of 0.4 mg/kg in 50 μL 1.1% dimethylsulfoxide, 4.8% ethanol, and 94.1% buffered saline was injected. In Yoda1-mediated pancreatitis, the midportion of the pancreas (about 100-125 mg) was carefully excised and used for biochemical assays and histological staining. Histological scoring was evaluated from the entire section. Partial PDL was performed as previously described. Using a stereo microscope, the tail region of the pancreas was visualized, and the main pancreatic duct was ligated carefully with 6-0 Prolene suture without damaging the left portal vein that separates the splenic lobe and gastroduodenal part of the pancreas. […]
Serum amylase concentration was measured by a colorimetric method after reaction with substrate using the Phadebas Amylase Test Tablet (Magle Life Sciences) and the Tecan-infinite M200 Pro plate reader.
MPO was measured using previously described methods with modifications. […] To calculate the mU of MPO/mg of protein, the protein concentrations of the supernatants were measured using the Micro BCA Protein Assay Kit (Thermo Fisher Scientific; 23235). […]

Clc1cccc(Cl)c1CSc1nnc(-c2cnccn2)s1 [Yoda1]
pancreatitis in TRPV4-KO mice: did not cause pancreatitis in TRPV4-KO mice | pancreatitis parameters (pancreatic edema, serum amylase, pancreatic MPO, histological scoring) (WT mice): increased all pancreatitis parameters measured
